Measurements published in ChEMBL document CHEMBL1131293, “N-[omega-(Tetralin-1-yl)alkyl] derivatives of 3,3-dimethylpiperidine are highly potent and selective sigma1 or sigma2 ligands” (J Med Chem, 1998).
pIC50: −log10 of the molar value.

Key:
[1] = target: Sigma non-opioid intracellular receptor 1 (Rattus norvegicus) (UniProt Q9R0C9); assay: IC50 ratio; sigma 1 to sigma 2; details: Cavia porcellus
Sigma 2 receptor = assay: Evaluated for the binding affinity towards sigma 2 receptor by displacing the radioligand [3H]DTG in guinea-pig brain cortex.; set-up: species or system Cavia porcellus
[2] = target: Sigma non-opioid intracellular receptor 1 (Rattus norvegicus, UniProt Q9R0C9); assay: Evaluated for the binding affinity towards sigma 1 receptor by displacing the radioligand [3H]-SKF- 10047 in whole rat brain membrane.; assay type: cell membranes
[3] = target: Sigma non-opioid intracellular receptor 1 (Rattus norvegicus) (UniProt Q9R0C9); assay: IC50 ratio; sigma 2 to sigma 1; details: Cavia porcellus

Sequence of Sigma non-opioid intracellular receptor 1 (Rattus norvegicus) (Q9R0C9 whole entry): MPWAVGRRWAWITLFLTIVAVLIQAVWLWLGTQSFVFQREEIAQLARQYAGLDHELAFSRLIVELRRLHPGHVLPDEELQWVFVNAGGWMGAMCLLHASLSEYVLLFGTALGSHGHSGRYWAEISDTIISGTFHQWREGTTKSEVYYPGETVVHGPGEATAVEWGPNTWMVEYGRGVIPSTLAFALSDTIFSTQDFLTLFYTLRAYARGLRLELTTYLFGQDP
Sequence of Sigma non-opioid intracellular receptor 1 (Q9R0C9 whole entry): as above

| SMILES | Ratio [1] | pIC50 (Sigma 2 receptor) | pIC50 [2] | Ratio [3] |
| --- | --- | --- | --- | --- |
| CC1(C)CCCN(CCCCC2=CCCc3ccccc32)C1 | 8590 | 8.96 | 5.02 |  |
| COc1ccc2c(c1)C(CCCCN1CCCC(C)(C)C1)CCC2 (centres undefined) | 58 | 9.36 | 7.59 |  |
| COc1cccc2c1CCCC2CCCN1CCCC(C)(C)C1 (racemic) [listing 1 of 2 here] |  |  |  | 287 |
| COc1ccc2c(c1)CCC2CCCN1CCCC(C)(C)C1 (centres undefined) | 4610 | 9.00 | 5.33 |  |
| COc1ccc2c(c1)CCCC2CCCCN1CCCC(C)(C)C1 (centres undefined) | > 100000 | 10.80 | 5.67 |  |
| CC1(C)CCCN(CCCC2=CCc3ccccc32)C1 | 1 | 8.96 | 9.00 | 1 |
| CC1(C)CCCN(CCCCCc2ccccc2)C1 | 583 | 8.00 | 5.23 |  |
| COc1cccc2c1CCCC2CCCN1CCCC(C)(C)C1 (stereo in doubt; (-)-22) [listing 1 of 2 here] |  |  |  | 131 |
| COc1cccc2c1CCC2CCCCN1CCCC(C)(C)C1 (centres undefined) | 2 | 8.34 | 8.03 | 0.5 |
| COc1cccc2c1CCCC2CCCCN1CCCC(C)(C)C1 (centres undefined) | 8 | 6.89 | 6.01 |  |
| COc1ccc2c(c1)C(CCCN1CCCC(C)(C)C1)CCC2 (centres undefined) |  | 6.96 | 7.66 | 5 |
| COc1cccc2c1CCCC2CCCN1CCCC(C)(C)C1 (single isomer, unassigned; (+)) [listing 1 of 2 here] |  |  |  | 1340 |
| CC1(C)CCCN(CCCCC2CCCc3ccccc32)C1 (centres undefined) |  | 8.26 | 9.16 | 8 |
| CC1(C)CCCN(CCCCCC2CCCc3ccccc32)C1 (centres undefined) | > 100000 | 11.10 | 5.82 |  |
| CC1(C)CCCN(CCCC2CCCc3ccccc32)C1 (centres undefined) | 2 | 6.87 | 6.60 | 0.5 |
| CC1(C)CCCN(CCC2CCCc3ccccc32)C1 (centres undefined) | > 9090 | 8.96 | < 5.00 |  |
| COc1cccc2c1CCCC2CCCN1CCCC(C)(C)C1 (racemic) [listing 2 of 2 here] |  | 6.86 | 9.32 |  |
| COc1ccc2c(c1)CCCC2CCCCCN1CCCC(C)(C)C1 (centres undefined) | 21 | 10.52 | 9.21 |  |
| CC1(C)CCCN(CCCC2CCCc3c(O)cccc32)C1 (centres undefined) |  | 7.00 | 7.39 | 2 |
| COc1cccc2c1CCCC2CCCN1CCCC(C)(C)C1 (stereo in doubt; (-)-22) [listing 2 of 2 here] |  | 6.95 | 9.07 |  |
| COc1ccc2c(c1)CCCC2CCCN1CCCC(C)(C)C1 (centres undefined) | > 114 | 7.06 | < 5.00 |  |
| CC1(C)CCCN(CCCC2CCc3ccccc32)C1 (centres undefined) | 1.5 | 8.35 | 8.16 | 0.6 |
| COc1cccc2c1CCCC2CCCN1CCCC(C)(C)C1 (single isomer, unassigned; (+)) [listing 2 of 2 here] |  | 6.92 | 10.05 |  |
